Measurements published in patent US10738028B2, “Spiro three-membered ring, spiro five-membered ring peptide deformylase inhibitor and use thereof in antibacteria and anti-tumor” (priority 2016, dated 2020).

What was measured:
Type in all cases: cell-based
[1] = tested on: HCT-116 colorectal cancer cell line; assay: CCK-8 proliferation inhibition; settings: Homo sapiens, HCT-116, 72 h, concentration of 30 μM; 72 hours; CCK-8; read-out: HCT116 inhibition rate/%
In short: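 2000 cells/well, McCoy's 5A + 10% newborn bovine serum; overnight attach, 37° C./5% CO2. Cpd from DMSO stock diluted in medium, 72 h. Readout: CCK-8 (1:10). Ctrl 1‰ DMSO.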

[2] = tested on: Escherichia coli (including ESBLs, non-ESBLs); assay: MIC, two-fold agar dilution (CLSI), clinical isolates
In short: (§1)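 Test samples were assayed by the CLSI-recommended two-fold agar dilution method, and the minimum inhibitory concentration against each tested strain was determined.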

[3] = tested on: Enterococcus faecalis (EFA); assay: as above
In short: as §1

[4] = tested on: methicillin-sensitive Staphylococcus aureus (MSSA); assay: as above
In short: as §1

[5] = tested on: methicillin-sensitive Staphylococcus epidermidis (MSSE); assay: as above
In short: as §1

[6] = tested on: Streptococcus pneoumoniae (SPN); assay: as above
In short: as §1

[7] = tested on: Enterococcus faecium (EFM); assay: as above
In short: as §1

[8] = tested on: Moraxella catarrhalis (BCA); assay: as above
In short: as §1

[9] = tested on: methicillin-resistant Staphylococcus aureus (MRSA); assay: as above
In short: as §1

[10] = tested on: methicillin-resistant Staphylococcus epidermidis (MRSE); assay: as above
In short: as §1

CCCC[C@H](CC(=O)NO)C(=O)N1CC2(CC2)C[C@H]1C(=O)Nc1ncc(C)s1 [Example 47, (S)-5-((R)-2-(2-(hydroxyamino)-2-oxoethyl)hexanoyl)-N-(5-methylthiazol-2-yl)-5-azaspiro[2.4]heptane-6-amide]
inhibition at 30 µM [1]: 20%
Anti-bacterial activity (MIC), strain ECO+ 15-1 ([2]; clinical isolate ECO+ 15-1): 32 µg/mL
Anti-bacterial activity (MIC), strain ECO+ 15-2 ([2]; clinical isolate ECO+ 15-2): > 32 µg/mL
Anti-bacterial activity (MIC), strain ECO+ 15-3 ([2]; clinical isolate ECO+ 15-3): > 32 µg/mL
Anti-bacterial activity (MIC), strain ECO+ 15-4 ([2]; clinical isolate ECO+ 15-4): 0.5 µg/mL
Anti-bacterial activity (MIC), strain ECO− 15-1 ([2]; clinical isolate ECO− 15-1): > 32 µg/mL
Anti-bacterial activity (MIC), strain ECO− 15-2 ([2]; clinical isolate ECO− 15-2): > 32 µg/mL
Anti-bacterial activity (MIC), strain ECO− 15-3 ([2]; clinical isolate ECO− 15-3): > 32 µg/mL
Anti-bacterial activity (MIC), strain ECO− 15-4 ([2]; clinical isolate ECO− 15-4): > 32 µg/mL
Anti-bacterial activity (MIC), strain EFA 15-1 ([3]; clinical isolate EFA 15-1): > 32 µg/mL
Anti-bacterial activity (MIC), strain EFA 15-2 ([3]; clinical isolate EFA 15-2): > 32 µg/mL
Anti-bacterial activity (MIC), strain EFA 15-3 ([3]; clinical isolate EFA 15-3): > 32 µg/mL
Anti-bacterial activity (MIC), strain EFA 15-4 ([3]; clinical isolate EFA 15-4): > 32 µg/mL
Anti-bacterial activity (MIC), strain EFA 15-5 ([3]; clinical isolate EFA 15-5): > 32 µg/mL
Anti-bacterial activity (MIC), strain EFA 15-6 ([3]; clinical isolate EFA 15-6): > 32 µg/mL
Anti-bacterial activity (MIC), strain EFA 15-9 ([3]; clinical isolate EFA 15-9): 4 µg/mL
Anti-bacterial activity (MIC), strain MSSA 15-3 ([4]; clinical isolate MSSA 15-3): 0.5 µg/mL
Anti-bacterial activity (MIC), strain MSSA 15-4 ([4]; clinical isolate MSSA 15-4): 0.5 µg/mL
Anti-bacterial activity (MIC), strain MSSA 15-5 ([4]; clinical isolate MSSA 15-5): 0.5 µg/mL
Anti-bacterial activity (MIC), strain MSSA 15-6 ([4]; clinical isolate MSSA 15-6): > 32 µg/mL
Anti-bacterial activity (MIC), strain MSSE 15-3 ([5]; clinical isolate MSSE 15-3): 0.5 µg/mL
Anti-bacterial activity (MIC), strain MSSE 15-4 ([5]; clinical isolate MSSE 15-4): 0.5 µg/mL
Anti-bacterial activity (MIC), strain MSSE 15-5 ([5]; clinical isolate MSSE 15-5): 0.5 µg/mL
Anti-bacterial activity (MIC), strain MSSE 15-6 ([5]; clinical isolate MSSE 15-6): 0.5 µg/mL
Anti-bacterial activity (MIC), strain SPN 16-2 ([6]; clinical isolate SPN 16-2): 0.5 µg/mL
Anti-bacterial activity (MIC), strain SPN 16-4 ([6]; clinical isolate SPN 16-4): 0.5 µg/mL
Anti-bacterial activity (MIC), strain EFM 15-1 ([7]; clinical isolate EFM 15-1): > 32 µg/mL
Anti-bacterial activity (MIC), strain EFM 15-2 ([7]; clinical isolate EFM 15-2): > 32 µg/mL
Anti-bacterial activity (MIC), strain EFM 15-3 ([7]; clinical isolate EFM 15-3): > 32 µg/mL
Anti-bacterial activity (MIC), strain EFM 15-4 ([7]; clinical isolate EFM 15-4): > 32 µg/mL
Anti-bacterial activity (MIC), strain EFM 15-5 ([7]; clinical isolate EFM 15-5): 0.25 µg/mL
Anti-bacterial activity (MIC), strain EFM 15-6 ([7]; clinical isolate EFM 15-6): 1 µg/mL
Anti-bacterial activity (MIC), strain BCA 14-1 ([8]; clinical isolate BCA 14-1): 4 µg/mL
Anti-bacterial activity (MIC), strain BCA 14-4 ([8]; clinical isolate BCA 14-4): 4 µg/mL
Anti-bacterial activity (MIC), strain BCA 14-5 ([8]; clinical isolate BCA 14-5): 0.25 µg/mL
Anti-bacterial activity (MIC), strain BCA 14-6 ([8]; clinical isolate BCA 14-6): 2 µg/mL
Anti-bacterial activity (MIC), strain BCA 14-7 ([8]; clinical isolate BCA 14-7): 2 µg/mL
Anti-bacterial activity (MIC), strain BCA 14-8 ([8]; clinical isolate BCA 14-8): 1 µg/mL
Anti-bacterial activity (MIC), strain BCA 14-10 ([8]; clinical isolate BCA 14-10): 0.5 µg/mL
Anti-bacterial activity (MIC), strain MRSA 15-1 ([9]; clinical isolate MRSA 15-1): 0.25 µg/mL
Anti-bacterial activity (MIC), strain MRSA 15-2 ([9]; clinical isolate MRSA 15-2): 0.5 µg/mL
Anti-bacterial activity (MIC), strain MRSA 15-3 ([9]; clinical isolate MRSA 15-3): 0.25 µg/mL
Anti-bacterial activity (MIC), strain MRSA 15-4 ([9]; clinical isolate MRSA 15-4): 0.5 µg/mL
Anti-bacterial activity (MIC), strain MRSE 15-1 ([10]; clinical isolate MRSE 15-1): 0.5 µg/mL
Anti-bacterial activity (MIC), strain MRSE 15-2 ([10]; clinical isolate MRSE 15-2): 0.5 µg/mL
Anti-bacterial activity (MIC), strain MRSE 15-3 ([10]; clinical isolate MRSE 15-3): 0.5 µg/mL
Anti-bacterial activity (MIC), strain MRSE 15-7 ([10]; clinical isolate MRSE 15-7): 0.5 µg/mL
